Measurements taken from BindingDB's records for PubMed 38142509 (Sichuan University).

Target: Signal transducer and activator of transcription 3 (Homo sapiens, UniProt P40763)
Experiment: Inhibition of STAT3 (unknown origin)

Sequence of Signal transducer and activator of transcription 3 (P40763 whole entry): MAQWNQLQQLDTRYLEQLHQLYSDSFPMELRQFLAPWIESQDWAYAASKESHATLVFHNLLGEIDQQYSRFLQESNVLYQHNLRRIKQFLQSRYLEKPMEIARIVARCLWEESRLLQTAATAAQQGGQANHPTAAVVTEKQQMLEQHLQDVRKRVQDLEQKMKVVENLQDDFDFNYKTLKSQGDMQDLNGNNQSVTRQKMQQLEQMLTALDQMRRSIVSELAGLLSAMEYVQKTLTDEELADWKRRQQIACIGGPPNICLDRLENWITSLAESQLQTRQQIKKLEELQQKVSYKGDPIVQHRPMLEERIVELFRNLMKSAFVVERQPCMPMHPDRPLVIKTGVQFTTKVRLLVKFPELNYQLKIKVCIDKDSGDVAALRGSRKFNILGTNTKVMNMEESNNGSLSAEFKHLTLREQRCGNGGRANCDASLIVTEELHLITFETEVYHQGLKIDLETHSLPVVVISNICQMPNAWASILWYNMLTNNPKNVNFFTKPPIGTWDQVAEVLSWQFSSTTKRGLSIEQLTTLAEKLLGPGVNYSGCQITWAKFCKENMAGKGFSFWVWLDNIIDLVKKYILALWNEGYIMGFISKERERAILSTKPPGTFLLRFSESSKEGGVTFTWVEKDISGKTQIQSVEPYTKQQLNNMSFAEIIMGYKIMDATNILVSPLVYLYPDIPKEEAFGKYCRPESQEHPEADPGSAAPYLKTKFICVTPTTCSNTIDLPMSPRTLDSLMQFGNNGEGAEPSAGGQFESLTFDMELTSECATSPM

COC(=O)[C@@]12OC[C@]34[C@H]([C@@H](O)[C@@H]1O)[C@@]1(C)CC(=O)C(O)=C(C)[C@@H]1C[C@H]3OC(=O)[C@H](OC(=O)C=C(C)C(C)(C)OC(C)=O)[C@@H]24
IC50: 2.4 nM
